Measured values published in patent US20240423973A1, “COMPOUNDS, PHARMACEUTICAL COMPOSITIONS, AND METHODS FOR THE TREATMENT, PREVENTION, OR MANAGEMENT OF HYPERPROLIFERATIVE DISORDERS” (VINCERX PHARMA GMBH, priority 2021, published 2024).
*1 amine or outer side, *2 acyl side, *3 side chain or, on linkers, in order; H or OH if unused. Where a SMILES comes first, the peptide text is derived from it. Bridges are numbered along the chain shown (N, C = ends). Roman numbers before positions name the chains, in order. [ ]: non-standard residue; d: D form. The star is where a group is joined. X1 = CCCNC(=O)Nc1cccc(S(=O)(=O)Nc2cccc([C@@H](CC(=O)O)NC(=O)Nc3ccc(N*)cc3)c2)c1; Camptothecin(7-Et) = CCc1c2c(nc3ccccc13)-c1cc3c(c(=O)n1C2)COC(=O)[C@@]3(CC)O*; Glutaryl = O=C(CCCC(=O)[*:2])[*:1]; PEG3 = NCCOCCOCCOCCC(=O)O; CO = O=C([*:1])[*:2]; Sar = CNCC(=O)O

Experiments:
[1] = Pharmacokinetics in rat after intravenous administration; format: in vivo; conditions: male rats, intravenous 0.5 mg/kg bolus, plasma, non-compartmental analysis; for Vd: read-out: Vss
Experimental: Male rats (n=3) were given an intravenous 0.5 mg/kg bolus dose of test article dissolved in plasma with 1% DMSO and 1% ethanol (Ex A3 only). Serial blood samples were collected up to 24 hours post-dose. Plasma was harvested from blood samples and stored frozen until sample analysis. Test article plasma concentrations were analyzed by LC/MS/MS.

[2] = test system: 786-O; test: Cytotoxicity in vitro in the presence and absence of elastase (MTT assay); format: cell-based, human; conditions: 786-O cells, 72 h
Experimental: (§1) Cultivation of cells was performed according to standard procedures with the media recommended by the provider. The cells, in a total volume of 100 μL, were seeded in a 96-well plate with a white bottom (#3610). After a 24 h incubation period at 37° C. and 5% CO2, the medium was exchanged by adding 90 μL fresh medium. The treatment started by adding the test compound in 10 μL of culture medium to the cells in triplicates. Concentrations ranging from 10^−5 M to 10^−13 M were chosen. Two identically treated sets of samples were prepared. One set was treated with the test compound alone, whereas to the second set the compound and 10 nM elastase was added followed by a 72 h incubation period at 37° C. and 5% CO2. The proliferation was detected using the MTT assay (ATCC). At the end of the incubation period the MTT reagent was added to all samples for 4h. Lysis of the cells followed by addition of the detergent was done overnight. The formed dye was detected at 570 nm. The proliferation of untreated but otherwise identically handled cells was define as the […].

[3] = test system: HT29; test: as above; format: cell-based, human; conditions: HT29 cells, 72 h
Experimental: as §1

[4] = test system: NCI H292; test: as above; format: cell-based, human; conditions: NCI H292 cells, 72 h
Experimental: as §1

[5] = test system: SUM149; test: as above; format: cell-based; conditions: SUM149 cells, 72 h
Experimental: as §1

SMILES | AUC [1] | clearance [1] | half-life [1] | Vd [1] | IC50 ([2]; compound alone (no elastase)) | IC50 ([2]; with 10 nM elastase) | IC50 ([3]; compound alone (no elastase)) | IC50 ([3]; with 10 nM elastase) | IC50 ([4]; compound alone (no elastase)) | IC50 ([4]; with 10 nM elastase) | IC50 ([5]; compound alone (no elastase)) | IC50 ([5]; with 10 nM elastase)
CCCNC(=O)Nc1cccc(S(=O)(=O)Nc2cccc([C@@H](CC(=O)O)NC(=O)Nc3ccc(NC(=O)NCCOCCOCCOCCC(=O)N[C@@H](CCCCNC(=O)CCCC(=O)N(C)CC(=O)N(C)CC(=O)N(C)CC(=O)N(C)CC(=O)O)C(=O)NCCOCCOCCOCCC(=O)N[C@@H](CC(=O)O)C(=O)N4CCC[C@H]4C(=O)N[C@H](C(=O)O[C@]4(CC)C(=O)OCc5c4cc4n(c5=O)Cc5c-4nc4ccccc4c5CC)C(C)C)cc3)c2)c1 [Compound E3] (I: {X1-CO-PEG3}-K[PEG3]DPV-{Camptothecin(7-Et)} / II: [Sar][Sar][Sar][Sar]-OH; linker I:1-II:N via Glutaryl) | 10000 to 50000 ng·h/mL | 0.5 to 5 mL/min/kg | 5 to 10 h | > 0.1 L/kg | – | – | – | – | – | – | – | –
CCCNC(=O)Nc1cccc(S(=O)(=O)Nc2cccc([C@@H](CC(=O)O)NC(=O)Nc3ccc(NC(=O)NCCOCCOCCOCCC(=O)N[C@@H](CCCCNC(=O)CCCC(=O)NCCOCCOCCOCCC(=O)N[C@@H](CC(=O)O)C(=O)N4CCC[C@H]4C(=O)N[C@H](C(=O)O[C@]4(CC)C(=O)OCc5c4cc4n(c5=O)Cc5c-4nc4ccccc4c5CC)C(C)C)C(=O)NCCCCCCCC(=O)O)cc3)c2)c1 [Compound E2] | 50000 to 150000 ng·h/mL | 0.5 to 5 mL/min/kg | 5 to 10 h | 0.01 to 0.1 L/kg | – | – | – | – | – | – | – | –
CCCNC(=O)Nc1cccc(S(=O)(=O)Nc2cccc([C@@H](CC(=O)OCC[N+](C)(C)C)NC(=O)Nc3ccc(NC(=O)NCCOCCOCCOCCC(=O)N[C@@H](CC(=O)OCC[N+](C)(C)C)C(=O)N4CCC[C@H]4C(=O)N[C@H](C(=O)O[C@]4(CC)C(=O)OCc5c4cc4n(c5=O)Cc5c-4nc4ccccc4c5CC)C(C)C)cc3)c2)c1 [Compound C9] | – | – | – | – | 10 to 100 nM | 1.1 to 10 nM | 10 to 100 nM | 0.1 to 1 nM | 10 to 100 nM | 0.1 to 1 nM | 10 to 100 nM | 0.1 to 1 nM
CCCNC(=O)Nc1cccc(S(=O)(=O)Nc2cccc([C@@H](CC(=O)O)NC(=O)Nc3ccc(NC(=O)NCCN(C)CCN(C)CCN(C)CC(=O)N[C@@H](CC(N)=O)C(=O)N4CCC[C@H]4C(=O)N[C@H](C(=O)O[C@]4(CC)C(=O)OCc5c4cc4n(c5=O)Cc5c-4nc4ccccc4c5CC)C(C)C)cc3)c2)c1 [Compound B4, (4S)-4,11-Diethyl-3,14-dioxo-3,4,12,14-tetrahydro-1H-pyrano[3′,4′:6,7]indolizino[1,2-b]quinolin-4-yl N-{2-[{2-[{2-[({4-[({(1R)-2-carboxy-1-[3-({3-[(propylcarbamoyl)amino]benzene-1-sulfonyl}amino)phenyl]ethyl}carbamoyl)amino]phenyl}carbamoyl)amino]ethyl} (methyl)amino]ethyl} I(methyl)amino]ethyl}-N-methylglycyl-L-asparaginyl-L-prolyl-L-valinate] | – | – | – | – | 10 to 100 nM | 0.01 to 0.1 nM | 10 to 100 nM | 0.01 to 0.1 nM | 10 to 100 nM | 0.01 to 0.1 nM | 1.1 to 10 nM | < 0.01 nM
CCCNC(=O)Nc1cccc(S(=O)(=O)Nc2cccc([C@H](CC(=O)O)NC(=O)Nc3ccc(NC(=O)NCCN(C)CCN(C)CCN(C)CC(=O)NCCN(C)CCN(C)CCN(C)CC(=O)N[C@@H](CC(N)=O)C(=O)N4CCC[C@H]4C(=O)N[C@H](C(=O)O[C@]4(CC)C(=O)OCc5c4cc4n(c5=O)Cc5c-4nc4ccccc4c5CC)C(C)C)cc3)c2)c1 [Compound D2] | – | – | – | – | 10 to 100 nM | 0.1 to 1 nM | 10 to 100 nM | 0.1 to 1 nM | 10 to 100 nM | 0.1 to 1 nM | 1.1 to 10 nM | 0.1 to 1 nM
CCCNC(=O)Nc1cccc(S(=O)(=O)Nc2cccc([C@@H](CC(=O)OCCCCN)NC(=O)Nc3ccc(NC(=O)NCCOCCOCCOCCC(=O)N[C@@H](CC(=O)OCCCCN)C(=O)N4CCC[C@H]4C(=O)N[C@H](C(=O)O[C@]4(CC)C(=O)OCc5c4cc4n(c5=O)Cc5c-4nc4ccccc4c5CC)C(C)C)cc3)c2)c1 [Compound C7] | – | – | – | – | 10 to 100 nM | 0.1 to 1 nM | > 100 nM | 0.1 to 1 nM | 1.1 to 10 nM | 0.01 to 0.1 nM | 1.1 to 10 nM | < 0.01 nM
CCCNC(=O)Cc1cccc(S(=O)(=O)Nc2cccc([C@@H](CC(=O)O)NC(=O)Nc3ccc(NC(=O)NCCOCCOCCOCCC(=O)N[C@@H](CCCCNC(=O)CCOCCOCCOCCNC(=O)Nc4ccc(NC(=O)N[C@H](CC(=O)O)c5cccc(CS(=O)(=O)c6cccc(NC(=O)NCCC)c6)c5)cc4)C(=O)NCCN(C)CCN(C)CCN(C)CC(=O)N[C@@H](CC(N)=O)C(=O)N4CCC[C@H]4C(=O)N[C@H](C(=O)O[C@]4(CC)C(=O)OCc5c4cc4n(c5=O)Cc5c-4nc4ccccc4c5CC)C(C)C)cc3)c2)c1 [Compound A5] | – | – | – | – | 10 to 100 nM | 0.01 to 0.1 nM | 10 to 100 nM | 0.01 to 0.1 nM | 1.1 to 10 nM | < 0.01 nM | 1.1 to 10 nM | < 0.01 nM
CCCNC(=O)Nc1cccc(S(=O)(=O)Nc2cccc([C@@H](CC(=O)O)NC(=O)Nc3ccc(NC(=O)NCCOCCOCCOCCC(=O)NCCCC[C@H](NC(=O)CCOCCOCCOCCNC(=O)Nc4ccc(NC(=O)N[C@H](CC(=O)O)c5cccc(NS(=O)(=O)c6cccc(NC(=O)NCCC)c6)c5)cc4)C(=O)NCCOCCOCCOCCC(=O)N[C@@H](CC(=O)O)C(=O)N4CCC[C@H]4C(=O)N[C@H](C(=O)O[C@]4(CC)C(=O)OCc5c4cc4n(c5=O)Cc5c-4nc4ccccc4c5CC)C(C)C)cc3)c2)c1 [Compound A3] | 50000 to 150000 ng·h/mL | 0.05 to 0.5 mL/min/kg | 10 to 15 h | 0.01 to 0.1 L/kg | – | – | – | – | – | – | – | –
CCCNC(=O)Nc1cccc(S(=O)(=O)Nc2cccc([C@@H](CC(=O)O)NC(=O)Nc3ccc(NC(=O)NCCOCCOCCOCCC(=O)N[C@@H](CCCCNC(=O)CCCC(=O)NCCOCCOCCOCCC(=O)N[C@@H](CC(=O)O)C(=O)N4CCC[C@H]4C(=O)N[C@H](C(=O)O[C@]4(CC)C(=O)OCc5c4cc4n(c5=O)Cc5c-4nc4ccccc4c5CC)C(C)C)C(=O)NCCC(=O)O)cc3)c2)c1 [Compound E1] | 10000 to 50000 ng·h/mL | 0.5 to 5 mL/min/kg | 5 to 10 h | > 0.1 L/kg | – | – | – | – | – | – | – | –
CCCNC(=O)Nc1cccc(S(=O)(=O)Nc2cccc([C@@H](CC(=O)O)NC(=O)Nc3ccc(NC(=O)NCCN(C)CCN(C)CCN(C)CC(=O)N[C@@H](CC(N)=O)C(=O)N4CCC[C@H]4C(=O)N[C@H](C(=O)O[C@]4(CC)C(=O)OCc5c4cc4n(c5=O)Cc5c-4nc4ccccc4c5CC)C(C)C)cc3)c2)c1.Cl.Cl.Cl [Compound B4b, (4S)-4,11-diethyl-3,14-dioxo-3,4,12,14-tetrahydro-1H-pyrano[3′,4′:6,7]indolizino[1,2-b]quinolin-4-yl N^2-{13-[4-({[(1R)-2-carboxy-1-{3-[({3-[(propylcarbamoyl)amino]phenyl}sulfonyl)amino]phenyl}ethyl]carbamoyl}amino)anilino]-3,6,9-trimethyl-13-oxo-12-aza-3,6,9-triazoniatridecan-1-oyl}-L-asparaginyl-L-prolyl-L-valinate trichloride] | 1000 to 10000 ng·h/mL | 0.5 to 5 mL/min/kg | 5 to 10 h | > 0.1 L/kg | 10 to 100 nM | 0.1 to 1 nM | 10 to 100 nM | 0.1 to 1 nM | 10 to 100 nM | 0.1 to 1 nM | 10 to 100 nM | 0.01 to 0.1 nM
CCCNC(=O)Nc1cccc(S(=O)(=O)Nc2cccc([C@@H](CC(=O)O)N(C(=O)NC(N)=O)c3ccc(NCCCCOC(=O)C[C@H](NC(=O)CCOCCOCCOCCNc4ccc(N(C(=O)NC(N)=O)[C@H](CC(=O)O)c5cccc(NS(=O)(=O)c6cccc(NC(=O)NCCC)c6)c5)cc4)C(=O)N4CCC[C@H]4C(=O)N[C@H](C(=O)O[C@]4(CC)C(=O)OCc5c4cc4n(c5=O)Cc5c-4nc4ccccc4c5CC)C(C)C)cc3)c2)c1 [Compound C4] | – | – | – | – | 10 to 100 nM | 0.01 to 0.1 nM | > 100 nM | 0.01 to 0.1 nM | 1.1 to 10 nM | 0.01 to 0.1 nM | 1.1 to 10 nM | 0.01 to 0.1 nM
